# Test results: patent US12281225B2, “Process for preparing stable polymers containing vinylimidazole” (BASF SE, priority 2018, dated 2025)
# Key:
# [1] = Physical stability; visual assessment (color, turbidity, phase separation); format: physicochemical; parameters: key: ++: no discernible change with respect to color, turbidity or phase separation; +: marginal change in color number, somewhat increased Tyndall effect but no turbidity; 0: easily discernible increase in color number and moderate turbidity−no phase separation; −: turbidity and change in color number readily discernible by visual assessment; −−: strong color change with strong turbidity and incipient phase separation
# Outline: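 Scoring was by eye on a scale from ++ to −−, where ++ means no change and −− means strong color change, strong turbidity and incipient phase separation. Color, turbidity and phase separation were the criteria.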
# [2] = tested on: Yeast: Candida albicans, Candida valida, Rhodotorula rura, Saccharomyces cerevisiae; assay: Preservation test with periodic inoculation, yeast assessment; format: cell-based; details: for Start sample measurement, yeast assess., 4th inoculation: freshly formulated; for 60 d 40° C., yeast assess., 4th inoculation: sample stored 60 d at 40° C.
# Procedure: (§1) Microbiological results at the start (freshly formulated, i.e. 4-week test series is started immediately) and after 60 days of storage at 40° C. (i.e. the 4-week microbial testing is started with the sample stored at 40° C. for 60 days)
# (§2) The test described below is carried out in order to ascertain the preserving effect of chemical preservatives in aqueous products and systems, the principle of the described method reflecting the efficacy of chemical preservatives with respect to pot-maintenance of aqueous products/systems under conditions corresponding to the use of laundry products/consumer products by the consumer. For this purpose, the preservatives to be tested are added in those concentrations which correspond to from the literature or to the manufacturer data from the suppliers (e.g. Thor, Speyer). In said test, our orientation was toward the upper range, which, with the exception of VI-containing polymers, had always led to excellent results in the case of aqueous polymers for laundry.
# (§3) A constant microorganism load is achieved by periodic inoculation of the test batches. Before the swabs of each batch made respectively immediately in parallel with the inoculation. The assessment is made on the basis of the microbial growth of the streaks.
# (§4) When carrying out said tests, 25 g of the polymer to be tested are weighed in each case into a vessel with a screw cap. The preservatives to be tested are each added in separate batches according to the specified use concentrations. An unpreserved product sample was used in each case for the growth control. Two days after the addition of the preservative, the samples are infected with 0.5 ml of inoculum (2% w/w). The titer of this inoculant solution is 10^9 organisms per ml. The following microorganisms are the test organisms for the preservation test:
# (§5) • Escherichia coli • Staphylococcus aureus • Pseudomonas aeruginosa • Pseudomonas putida • Burkholderia cepacia • Alcaligenes faecalis Yeast: • Candida albicans • Candida valida • Rhodotorula rura • Saccharomyces cerevisiae
# (§6) The test batches are inoculated four times altogether and once a week and are streaked on an agar plate once a week; the first streaking is done immediately before the new inoculation. Microbial growth on the agar surface is assessed after a three-day incubation at 25° C. As a precaution, negative swabs are additionally observed for a further three days and reassessed. The preserving effect is effected in a semiquantitative method via the growth of the individual streaks in accordance with the assessment from − via + to +++. The preservative result is repeatedly demonstrably robust, i.e. +++− defines the microbial growth.
# (§7) When assessing the results, it is assumed that a preservative can be regarded as good if there are batches under the above-described laboratory conditions for a period of four weeks without microbial invasion of the sample, and that, even after the fourth inoculation, no microbial attacks occur growth can be identified. • −−: no growth • −: slight growth, max. 100 colonies • 0: moderate growth, max. 400 colonies • +: uniform growth with individual colonies still easily identifiable • ++: strong growth; too many colonies to be counted, already some extensive growth
# [3] = tested on: Bacteria: Escherichia coli, Staphylococcus aureus, Pseudomonas aeruginosa, Pseudomonas putida, Burkholderia cepacia, Alcaligenes faecalis; assay: Preservation test with periodic inoculation, bacteria assessment; format: cell-based; details: for 60 d 40° C., bact. assess., 4th inoculation: sample stored 60 d at 40° C.; for Start sample measurement, bact. assess., 4th inoculation: freshly formulated
# Procedure: as §1, §2, §3, §4, §5, §6, §7
# [4] = Iodine color number according to DIN 6162:2014-09; format: physicochemical
# [5] = Polymer P5 (HP56) with stabilizer
compound,measurement,setting,value
"CCCCCCCCn1sc(Cl)c(Cl)c1=O [DCOIT, dichloroctylisothiazolinone]","Physical stability, 60 d 40° C.*",[1]; Polymer P1 with stabilizer,−−
same,"Physical stability, 60 d 40° C.*",[1]; Polymer P2 with stabilizer,−−
same,"Physical stability, 60 d 40° C.*",[1]; Polymer P3 with stabilizer,−−
same,"Physical stability, 60 d 40° C.*",[1]; Polymer P4 with stabilizer,−
same,"Physical stability, 60 d 40° C.*",[1]; [5],−−
same,"Physical stability, 60 d 40° C.*",[1]; Polymer P6 with stabilizer,−−
same,"Physical stability, 60 d 40° C.*",[1]; Polymer P7 with stabilizer,−−
same,"Physical stability, 60 d 40° C.*",[1]; Polymer P8 with stabilizer,−−
same,"Physical stability, 60 d 40° C.*",[1]; Polymer P9 with stabilizer,−
same,"Start sample measurement, yeast assess., 4th inoculation",[2]; Polymer P1,"− (slight growth, max. 100 colonies)"
same,"60 d 40° C., yeast assess., 4th inoculation",[2]; Polymer P1,+
same,"Start sample measurement, yeast assess., 4th inoculation",[2]; Polymer P2,"− (slight growth, max. 100 colonies)"
same,"60 d 40° C., yeast assess., 4th inoculation",[2]; Polymer P2,+
same,"Start sample measurement, yeast assess., 4th inoculation",[2]; Polymer P3,"− (slight growth, max. 100 colonies)"
same,"60 d 40° C., yeast assess., 4th inoculation",[2]; Polymer P3,++
same,"Start sample measurement, yeast assess., 4th inoculation",[2]; Polymer P4,"− (slight growth, max. 100 colonies)"
same,"60 d 40° C., yeast assess., 4th inoculation",[2]; Polymer P4,++
same,"Start sample measurement, yeast assess., 4th inoculation",[2]; Polymer P5 (HP56),"− (slight growth, max. 100 colonies)"
same,"60 d 40° C., yeast assess., 4th inoculation",[2]; Polymer P5 (HP56),++
same,"Start sample measurement, yeast assess., 4th inoculation",[2]; Polymer P6,"− (slight growth, max. 100 colonies)"
same,"60 d 40° C., yeast assess., 4th inoculation",[2]; Polymer P6,+
same,"Start sample measurement, yeast assess., 4th inoculation",[2]; Polymer P7,"− (slight growth, max. 100 colonies)"
same,"60 d 40° C., yeast assess., 4th inoculation",[2]; Polymer P7,++
same,"Start sample measurement, yeast assess., 4th inoculation",[2]; Polymer P8,"− (slight growth, max. 100 colonies)"
same,"60 d 40° C., yeast assess., 4th inoculation",[2]; Polymer P8,"0 (moderate growth, max. 400 colonies)"
same,"Start sample measurement, yeast assess., 4th inoculation",[2]; Polymer P9,"− (slight growth, max. 100 colonies)"
same,"60 d 40° C., yeast assess., 4th inoculation",[2]; Polymer P9,++
same,"60 d 40° C., bact. assess., 4th inoculation",[3]; Polymer P1,"0 (moderate growth, max. 400 colonies)"
same,"60 d 40° C., bact. assess., 4th inoculation",[3]; Polymer P2,+
same,"60 d 40° C., bact. assess., 4th inoculation",[3]; Polymer P3,+
same,"60 d 40° C., bact. assess., 4th inoculation",[3]; Polymer P4,+
same,"60 d 40° C., bact. assess., 4th inoculation",[3]; Polymer P5 (HP56),+
same,"60 d 40° C., bact. assess., 4th inoculation",[3]; Polymer P6,+
same,"60 d 40° C., bact. assess., 4th inoculation",[3]; Polymer P7,+
same,"60 d 40° C., bact. assess., 4th inoculation",[3]; Polymer P8,+
same,"60 d 40° C., bact. assess., 4th inoculation",[3]; Polymer P9,++
same,"Iodine color number, 60 d 40° C.",[4]; Polymer P1 with stabilizer,6.2
same,"Iodine color number, start",[4]; Polymer P1 with stabilizer,3.0
same,"Iodine color number, 60 d 40° C.",[4]; Polymer P2 with stabilizer,8.1
same,"Iodine color number, start",[4]; Polymer P2 with stabilizer,3.1
same,"Iodine color number, 60 d 40° C.",[4]; Polymer P3 with stabilizer,9.1
same,"Iodine color number, start",[4]; Polymer P3 with stabilizer,3.4
same,"Iodine color number, 60 d 40° C.",[4]; Polymer P4 with stabilizer,8.9
same,"Iodine color number, start",[4]; Polymer P4 with stabilizer,3.4
same,"Iodine color number, 60 d 40° C.",[4]; [5],8.7
same,"Iodine color number, start",[4]; [5],3.6
same,"Iodine color number, 60 d 40° C.",[4]; Polymer P6 with stabilizer,8.4
same,"Iodine color number, start",[4]; Polymer P6 with stabilizer,3.6
same,"Iodine color number, 60 d 40° C.",[4]; Polymer P7 with stabilizer,8.4
same,"Iodine color number, start",[4]; Polymer P7 with stabilizer,3.6
same,"Iodine color number, 60 d 40° C.",[4]; Polymer P8 with stabilizer,8.9
same,"Iodine color number, start",[4]; Polymer P8 with stabilizer,3.4
same,"Iodine color number, 60 d 40° C.",[4]; Polymer P9 with stabilizer,14.7
same,"Iodine color number, start",[4]; Polymer P9 with stabilizer,3.9
"CCCCNC(=O)OCC#CI [Iodopropynyl butyl carbamate, iodopropynyl butyl carbamate]","Physical stability, 60 d 40° C.*",[1]; Polymer P1 with stabilizer,−
same,"Physical stability, 60 d 40° C.*",[1]; Polymer P2 with stabilizer,−
same,"Physical stability, 60 d 40° C.*",[1]; Polymer P3 with stabilizer,−
same,"Physical stability, 60 d 40° C.*",[1]; Polymer P4 with stabilizer,−
same,"Physical stability, 60 d 40° C.*",[1]; [5],−
same,"Physical stability, 60 d 40° C.*",[1]; Polymer P6 with stabilizer,−
same,"Physical stability, 60 d 40° C.*",[1]; Polymer P7 with stabilizer,−
same,"Physical stability, 60 d 40° C.*",[1]; Polymer P8 with stabilizer,−
same,"Physical stability, 60 d 40° C.*",[1]; Polymer P9 with stabilizer,−
same,"Start sample measurement, yeast assess., 4th inoculation",[2]; Polymer P1,"− (slight growth, max. 100 colonies)"
same,"60 d 40° C., yeast assess., 4th inoculation",[2]; Polymer P1,+ +
same,"Start sample measurement, yeast assess., 4th inoculation",[2]; Polymer P2,"− (slight growth, max. 100 colonies)"
same,"60 d 40° C., yeast assess., 4th inoculation",[2]; Polymer P2,+
same,"Start sample measurement, yeast assess., 4th inoculation",[2]; Polymer P3,"− (slight growth, max. 100 colonies)"
same,"60 d 40° C., yeast assess., 4th inoculation",[2]; Polymer P3,+
same,"Start sample measurement, yeast assess., 4th inoculation",[2]; Polymer P4,"− (slight growth, max. 100 colonies)"
same,"60 d 40° C., yeast assess., 4th inoculation",[2]; Polymer P4,++
same,"Start sample measurement, yeast assess., 4th inoculation",[2]; Polymer P5 (HP56),"− (slight growth, max. 100 colonies)"
same,"60 d 40° C., yeast assess., 4th inoculation",[2]; Polymer P5 (HP56),+
same,"Start sample measurement, yeast assess., 4th inoculation",[2]; Polymer P6,"− (slight growth, max. 100 colonies)"
same,"60 d 40° C., yeast assess., 4th inoculation",[2]; Polymer P6,+
same,"Start sample measurement, yeast assess., 4th inoculation",[2]; Polymer P7,"− (slight growth, max. 100 colonies)"
same,"60 d 40° C., yeast assess., 4th inoculation",[2]; Polymer P7,+
same,"Start sample measurement, yeast assess., 4th inoculation",[2]; Polymer P8,"− (slight growth, max. 100 colonies)"
same,"60 d 40° C., yeast assess., 4th inoculation",[2]; Polymer P8,+
same,"Start sample measurement, yeast assess., 4th inoculation",[2]; Polymer P9,"− (slight growth, max. 100 colonies)"
same,"60 d 40° C., yeast assess., 4th inoculation",[2]; Polymer P9,+
same,"Start sample measurement, bact. assess., 4th inoculation",[3]; Polymer P1,"− (slight growth, max. 100 colonies)"
same,"60 d 40° C., bact. assess., 4th inoculation",[3]; Polymer P1,"0 (moderate growth, max. 400 colonies)"
same,"Start sample measurement, bact. assess., 4th inoculation",[3]; Polymer P2,"− (slight growth, max. 100 colonies)"
same,"60 d 40° C., bact. assess., 4th inoculation",[3]; Polymer P2,+
same,"Start sample measurement, bact. assess., 4th inoculation",[3]; Polymer P3,"− (slight growth, max. 100 colonies)"
same,"60 d 40° C., bact. assess., 4th inoculation",[3]; Polymer P3,+
same,"60 d 40° C., bact. assess., 4th inoculation",[3]; Polymer P4,"0 (moderate growth, max. 400 colonies)"
same,"Start sample measurement, bact. assess., 4th inoculation",[3]; Polymer P5 (HP56),"− (slight growth, max. 100 colonies)"
same,"60 d 40° C., bact. assess., 4th inoculation",[3]; Polymer P5 (HP56),+
same,"60 d 40° C., bact. assess., 4th inoculation",[3]; Polymer P6,+
same,"60 d 40° C., bact. assess., 4th inoculation",[3]; Polymer P7,+
same,"Start sample measurement, bact. assess., 4th inoculation",[3]; Polymer P8,"− (slight growth, max. 100 colonies)"
same,"60 d 40° C., bact. assess., 4th inoculation",[3]; Polymer P8,+
same,"60 d 40° C., bact. assess., 4th inoculation",[3]; Polymer P9,+
same,"Iodine color number, 60 d 40° C.",[4]; Polymer P1 with stabilizer,7.5
same,"Iodine color number, start",[4]; Polymer P1 with stabilizer,2.8
same,"Iodine color number, 60 d 40° C.",[4]; Polymer P2 with stabilizer,8.0
same,"Iodine color number, start",[4]; Polymer P2 with stabilizer,2.8
same,"Iodine color number, 60 d 40° C.",[4]; Polymer P3 with stabilizer,10.4
same,"Iodine color number, start",[4]; Polymer P3 with stabilizer,3.4
same,"Iodine color number, 60 d 40° C.",[4]; Polymer P4 with stabilizer,10.0
same,"Iodine color number, start",[4]; Polymer P4 with stabilizer,3.4
same,"Iodine color number, 60 d 40° C.",[4]; [5],11.7
same,"Iodine color number, start",[4]; [5],3.4
same,"Iodine color number, 60 d 40° C.",[4]; Polymer P6 with stabilizer,11.0
same,"Iodine color number, start",[4]; Polymer P6 with stabilizer,3.4
same,"Iodine color number, 60 d 40° C.",[4]; Polymer P7 with stabilizer,11.0
same,"Iodine color number, start",[4]; Polymer P7 with stabilizer,3.4
same,"Iodine color number, 60 d 40° C.",[4]; Polymer P8 with stabilizer,11.4
same,"Iodine color number, start",[4]; Polymer P8 with stabilizer,3.4
same,"Iodine color number, 60 d 40° C.",[4]; Polymer P9 with stabilizer,16.9
same,"Iodine color number, start",[4]; Polymer P9 with stabilizer,3.9
